Measurements: ChEMBL document CHEMBL1833824, “Effects of cyclization on stability, structure, and activity of α-conotoxin RgIA at the α9α10 nicotinic acetylcholine receptor and GABA(B) receptor” (J Med Chem, 2011)
Bridge positions count the residues as written; N and C are the ends. Square brackets hold non-standard residues; d marks the D form. Peptide text beside a SMILES is read from it. Hyp = O=C(O)[C@@H]1C[C@@H](O)CN1

Legend:
Oocyte = test: Inhibition of human alpha-9/rat alpha-10 nACHR expressed in Xenopus oocytes assessed as inhibition of acetylcholine-induced current by voltage clamp assay relative to RgIA; format: cell-based; details: dose or concentration not given here
[1] = Inhibition of GABA-B receptor-mediated high voltage-activated Ca2+ channel current in Wistar rat DRG neurons by whole-cell patch clamp assay; details: DRG neuron

## N=C(N)NCCC[C@@H]1NC(=O)[C@H](Cc2ccc(O)cc2)NC(=O)[C@H](CCCNC(=N)N)NC(=O)[C@@H]2CSSC[C@H](NC(=O)CN)C(=O)N[C@@H](CSSC[C@@H](C(=O)O)NC1=O)C(=O)N[C@@H](CO)C(=O)N[C@@H](CC(=O)O)C(=O)N1C[C@H](O)C[C@H]1C(=O)N[C@@H](CCCNC(=N)N)C(=O)N2 (H-GCCSD[Hyp]RCRYRC-OH; disulfide 2-8, 3-12)
Oocyte
  inhibition: 41%
[1]
  IC50: 20.5 nM
